Results as given in ChEMBL document CHEMBL1201862, “PubChem BioAssay data set” (2004).
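Compound exposure: 48 hours, 5 concentrations, 96-well plates. Here, GI50 denotes the concentration required for 50% inhibition of growth.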 Activity calls are given as the source filed them. Cut-off read from the data, not from the text of the source: active = GI50 up to about 1.1 µM and inactive = higher.

Assays:
Test in all cases: NCI-60 cell line screen, 48 h
786-0 = test system: 786-0
A549 = test system: A549
ACHN = test system: ACHN
CAKI-1 = test system: CAKI-1
CCRF-CEM = test system: CCRF-CEM
COLO 205 = test system: COLO 205
DU-145 = test system: DU-145
EKVX = test system: EKVX
HCT-116 = test system: HCT-116
HCT-15 = test system: HCT-15
HL-60 = test system: HL-60
HOP-62 = test system: HOP-62
HOP-92 = test system: HOP-92
HT-29 = test system: HT-29
Hs-578T = test system: Hs-578T
IGROV-1 = test system: IGROV-1
K562 = test system: K562
KM12 = test system: KM12
LOX IMVI = test system: LOX IMVI
M14 = test system: M14
MCF7 = test system: MCF7
MDA-MB-231 = test system: MDA-MB-231
MDA-MB-435 = test system: MDA-MB-435
MOLT-4 = test system: MOLT-4
Malme-3M = test system: Malme-3M
NCI-H226 = test system: NCI-H226
NCI-H23 = test system: NCI-H23
NCI-H460 = test system: NCI-H460
NCI-H522 = test system: NCI-H522
NCI/ADR-RES = test system: NCI/ADR-RES
OVCAR-3 = test system: OVCAR-3
OVCAR-4 = test system: OVCAR-4
OVCAR-5 = test system: OVCAR-5
OVCAR-8 = test system: OVCAR-8
PC-3 = test system: PC-3
RPMI-8226 = test system: RPMI-8226
RXF 393 = test system: RXF 393
SF-268 = test system: SF-268
SF-295 = test system: SF-295
SF-539 = test system: SF-539
SK-MEL-28 = test system: SK-MEL-28
SK-MEL-2 = test system: SK-MEL-2
SK-MEL-5 = test system: SK-MEL-5
SK-OV-3 = test system: SK-OV-3
SN12C = test system: SN12C
SNB-19 = test system: SNB-19
SNB-75 = test system: SNB-75
SW-620 = test system: SW-620
T47D = test system: T47D
TK-10 = test system: TK-10
U-251 = test system: U-251
UACC-257 = test system: UACC-257
UACC-62 = test system: UACC-62
UO-31 = test system: UO-31
A498 = test system: A498
HCC 2998 = test system: HCC 2998
MDA-N = test system: MDA-N
SR = test system: SR

Measured: GI50

COC(=O)C1=C(C)NC(=S)NC1c1ccc(N(CCCl)CCCl)cc1Cl (stereo not given)
9.91 µM: HCT-15
inactive: 786-0 51.3 µM | A549 8.2 µM | ACHN 11 µM | CAKI-1 2 µM | COLO 205 25.3 µM | DU-145 12.4 µM | EKVX 2.11 µM | HCT-116 34 µM | HL-60 39.4 µM | HOP-62 73.6 µM | HOP-92 74.8 µM | HT-29 32.5 µM | Hs-578T > 22 µM | IGROV-1 29.4 µM | K562 8.99 µM | KM12 19.6 µM | LOX IMVI 24.8 µM | M14 32.5 µM | MCF7 16.7 µM | MDA-MB-231 21 µM | MDA-MB-435 12.5 µM | MOLT-4 4.55 µM | Malme-3M 3.04 µM | NCI-H226 3.56 µM | NCI-H23 5.45 µM | NCI-H460 22 µM | NCI-H522 31.8 µM | NCI/ADR-RES 37 µM | OVCAR-3 22.6 µM | OVCAR-4 16.3 µM | OVCAR-5 56.5 µM | OVCAR-8 31 µM | PC-3 20.9 µM | RPMI-8226 1.33 µM | RXF 393 > 34.9 µM | SF-268 23.9 µM | SF-295 19.4 µM | SF-539 > 72.6 µM | SK-MEL-28 29 µM | SK-MEL-2 24.2 µM | SK-MEL-5 1.82 µM | SK-OV-3 > 100 µM | SN12C 34.2 µM | SNB-19 49 µM | SNB-75 > 54.6 µM | SW-620 33 µM | T47D 6.71 µM | TK-10 32.4 µM | U-251 53.6 µM | UACC-257 2.44 µM | UACC-62 3.05 µM | UO-31 35.8 µM
active: CCRF-CEM 0.824 µM

C(=C\C(SCc1ccccc1)SCc1ccccc1)/c1ccccc1
inactive: 786-0 > 10 µM | A498 > 10 µM | A549 > 10 µM | ACHN > 10 µM | CAKI-1 > 10 µM | CCRF-CEM > 10 µM | COLO 205 > 10 µM | DU-145 > 10 µM | EKVX > 10 µM | HCC 2998 > 10 µM | HCT-116 > 10 µM | HL-60 > 10 µM | HOP-62 > 10 µM | HOP-92 > 10 µM | HT-29 > 10 µM | Hs-578T > 10 µM | IGROV-1 > 10 µM | K562 > 10 µM | KM12 > 10 µM | LOX IMVI > 10 µM | M14 > 10 µM | MCF7 > 10 µM | MDA-MB-231 > 10 µM | MDA-N > 10 µM | MOLT-4 > 10 µM | Malme-3M > 10 µM | NCI-H226 > 10 µM | NCI-H23 > 10 µM | NCI-H460 > 10 µM | NCI-H522 > 10 µM | NCI/ADR-RES > 10 µM | OVCAR-3 > 10 µM | OVCAR-4 > 10 µM | OVCAR-8 > 10 µM | PC-3 > 10 µM | RPMI-8226 > 10 µM | RXF 393 > 10 µM | SF-268 > 10 µM | SF-295 > 10 µM | SF-539 > 10 µM | SK-MEL-28 > 10 µM | SK-MEL-2 > 10 µM | SK-MEL-5 > 10 µM | SK-OV-3 > 10 µM | SN12C > 10 µM | SNB-19 > 10 µM | SNB-75 > 10 µM | SR > 10 µM | SW-620 > 10 µM | T47D > 10 µM | TK-10 > 10 µM | U-251 > 10 µM | UACC-257 > 10 µM | UACC-62 > 10 µM | UO-31 > 10 µM
> 10 µM: HCT-15
